Patent US10842758B1, “Transdermal penetrant formulations containing cannabidiol” (AMPERSAND BIOPHARMACEUTICALS, INC., priority 2019, dated 2020)

Assay: Plasma pharmacokinetic profile of cannabidiol after a single topical dose (In-life Study 1901002-01, LC-MS/MS)
Assay type: in vivo, CD-1 mice
Details: CD-1, topical or ocular, single topical dose 0.1 mL, mouse plasma
Method: The objective of this study was to determine the plasma pharmacokinetic (PK) profile of test article cannabidiol (CBD) following the administration of a single topical dose to CD-1 mice. The work was conducted at Alliance Pharma with a title of In-life Study 1901002-01. Although the in-life study was not intended to be conducted in compliance with Good Laboratory Practice regulations, the study was conducted in accordance with Alliance Pharma's IACUC (Institutional Animal Care and Use Committee) Protocol No. 2016-02_V4 and Alliance Pharma's standard operating procedures (SOPs). In addition, the pharmacokinetic analyses of mouse plasma samples were conducted in accordance with Alliance Pharma SOPs.
A total of 72 mouse (CD-1) plasma samples were transferred from Alliance Pharma's in-life facility located in Malvern, Pa. to the Bioanalytical department for pharmacokinetic analysis. The concentration of CBD in these 72 plasma samples was measured using high-performance liquid chromatography (HPLC) with tandem mass spectrometry (MS/MS) detection.
Test Article: The dose gels for test article CBD were provided by Ampersand Biopharma dba Dyve Biosciences (Thousand Oakes, Calif.), prior to the start of this study and stored at room temperature.
In-life Study Design: In-life Study 1901002-01 was performed at the in-life testing facility at Alliance Pharma. Four (4) groups of 21 CD-1 mice each (84 total) were administered a single topical dose of CBD. Mice in Group 1 were administered Formulation A at a strength of 2.5% CBD. Mice in Group 2 were administered Formulation B at the same strength of 2.5% CBD. Mice in Group 3 were administered Formulation C at a strength of 5% CBD, and mice in Group 4 were administered Formulation C at a strength of 2.5% CBD. The treatment scheme is summarized below.
Animals in each group received topical administration of either 2.5% o 5% CBD using a 1 ml syringe to draw up exactly 100 μl. Compound was applied in the shaved area only. Each group received a different formulation of the compound.
Sample Collection, Processing, and Shipment: Blood samples were collected at the in-life facility at the following time points: 0.25, 0.5, 1, 2, 4, and 8 hours post-dose from 72 mice in Groups 1 through 4 (18 from each treatment group). Target volume was less than or equal to 0.2 ml. The blood was collected via trunk puncture into tubes using K2 EDTA as an anticoagulant. The collected blood samples were kept on wet ice before being centrifuged. Blood samples were centrifuged as soon as possible after blood collection at approximately 10,000 rpm for about 10 minutes to separate the plasma. Approximately 0.2 mL of each plasma sample was transferred into labeled Eppendorf tubes. Each tube was stored in a freezer set to −20° C. or lower. No blood was collected from 12 (3 from each treatment group) of the 84 mice enrolled in the in-life study; thus, the total number of plasma samples that were transferred to the Alliance Pharma Bioanalytical department for bioanalysis was 72.
Assay Procedures: For analysis of CBD, a 25-μL aliquot of each study sample was mixed with 25 μL of acetonitrile/water (50:50, v/v). Samples were then extracted by protein precipitation using acetonitrile containing the internal standard, tolbutamide (25 ng/mL). A portion of the supernatant was diluted in deionized water and used for the analysis of CBD.
Preparation of Standards and Quality Controls: Calibration standards of CBD mouse plasma samples were prepared in acetonitrile/water (50:50, v/v) at concentrations of 1, 2, 20, 200, 500, 1000, 1800, and 2000 ng/mL. The low quality control (LQC), medium quality control (MQC), and high quality control (HQC) were prepared in blank mouse plasma at concentrations of 3, 150, and 1500 ng/mL, respectively. A dilution quality control (DQC) was prepared at a concentration of 10,000 ng/mL and used in Batch 1.
Sample Analyses: Study samples were analyzed using a bioanalytical method qualified by Alliance Pharma. […]

[1] = Group 1: AEM.CBD.006 Formulation A 2.5% CBD, mean dose 78.69 mg/kg
[2] = Group 2: AEM.CBD.007 Formulation B 2.5% CBD, mean dose 76.61 mg/kg
[3] = Group 3: KBM.CBD.010 Formulation C 5% CBD, mean dose 155.24 mg/kg
[4] = Group 4: KBM.CBD.011 Formulation C 2.5% CBD, mean dose 75.76 mg/kg

C=C(C)[C@@H]1CCC(C)=C[C@H]1c1c(O)cc(CCCCC)cc1O [Cannabidiol]
AUC(0-inf) [1]: 1.86 µg·h/mL
AUC(0-t) [1]: 1.76 µg·h/mL
Cmax [1]: 0.427 µg/mL
Tmax [1]: 2 h
half-life [1]: 1.78 h
AUC(0-inf) [2]: 1.65 µg·h/mL
AUC(0-t) [2]: 1.56 µg·h/mL
Cmax [2]: 0.36 µg/mL
Tmax [2]: 2 h
half-life [2]: 1.7 h
AUC(0-inf) [3]: 3.53 µg·h/mL
AUC(0-t) [3]: 3.07 µg·h/mL
Cmax [3]: 0.602 µg/mL
Tmax [3]: 4 h
AUC(0-inf) [4]: 1.51 µg·h/mL
AUC(0-t) [4]: 1.41 µg·h/mL
Cmax [4]: 0.332 µg/mL
Tmax [4]: 1 h
half-life [4]: 1.92 h
